The target in test [1] is T1, laminin/nidogen association (Homo sapiens, UniProt P14543).
T1 sequence (P14543 29-1247): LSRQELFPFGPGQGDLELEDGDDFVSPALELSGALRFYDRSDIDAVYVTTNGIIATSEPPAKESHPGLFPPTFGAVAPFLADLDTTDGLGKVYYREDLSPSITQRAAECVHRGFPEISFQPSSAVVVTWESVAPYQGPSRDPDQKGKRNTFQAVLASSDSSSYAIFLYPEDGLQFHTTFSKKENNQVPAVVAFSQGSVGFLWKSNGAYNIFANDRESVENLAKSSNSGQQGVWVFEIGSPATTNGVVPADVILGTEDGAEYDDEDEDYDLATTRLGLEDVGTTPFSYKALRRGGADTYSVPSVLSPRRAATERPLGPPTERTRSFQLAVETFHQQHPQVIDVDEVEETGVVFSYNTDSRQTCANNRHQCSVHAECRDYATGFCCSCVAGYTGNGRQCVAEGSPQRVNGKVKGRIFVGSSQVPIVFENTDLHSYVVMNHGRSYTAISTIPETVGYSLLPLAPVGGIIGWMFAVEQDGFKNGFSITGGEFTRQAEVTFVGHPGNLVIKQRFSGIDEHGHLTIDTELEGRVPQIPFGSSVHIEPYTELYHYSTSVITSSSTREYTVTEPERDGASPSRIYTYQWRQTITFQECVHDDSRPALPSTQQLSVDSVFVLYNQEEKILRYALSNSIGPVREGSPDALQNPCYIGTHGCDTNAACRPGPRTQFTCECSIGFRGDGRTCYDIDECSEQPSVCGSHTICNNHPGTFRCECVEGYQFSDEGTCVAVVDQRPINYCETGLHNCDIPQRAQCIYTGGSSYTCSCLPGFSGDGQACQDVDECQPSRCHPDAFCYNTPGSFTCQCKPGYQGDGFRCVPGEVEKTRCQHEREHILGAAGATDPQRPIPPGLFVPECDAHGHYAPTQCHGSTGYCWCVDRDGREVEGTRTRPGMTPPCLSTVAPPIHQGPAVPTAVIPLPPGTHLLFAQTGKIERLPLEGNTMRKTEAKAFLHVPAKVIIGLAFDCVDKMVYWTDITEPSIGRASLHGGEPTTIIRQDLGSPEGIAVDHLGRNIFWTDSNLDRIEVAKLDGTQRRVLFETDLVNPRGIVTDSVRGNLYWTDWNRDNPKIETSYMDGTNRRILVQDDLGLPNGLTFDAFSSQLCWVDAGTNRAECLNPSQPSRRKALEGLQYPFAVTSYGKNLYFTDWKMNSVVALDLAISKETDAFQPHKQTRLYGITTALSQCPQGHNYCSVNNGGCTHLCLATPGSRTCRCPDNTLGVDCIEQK
The test is described as follows: Three-day equilibrium assay, inhibition of laminin/nidogen association. It is filed as binding. The settings on record: Table 2, 3-day equilibrium assay variant. From the text: 3.1.2. Three-day equilibrium assay Selected inhibitors were investigated for inhibitory activity in this assay variant. The assay is described in U.S. Pat. No. 5,493,008. The following table compares IC50 values of selected substances with the results of the HTS screening assay. It is clear that the 3-day assay gives slightly lower measured values and, as expected, is more sensitive than the screening assay. However, it is also clear from the comparison that inhibitory structures can be identified reliably with the screening assay developed by us.

In test [2] the target is T2, laminin/nidogen interaction (laminin P1, recombinantly produced human nidogen) (Homo sapiens, UniProt P14543).
T2 construct: made in house; host or cells: HEK-293
T2 sequence (P14543 29-1247): T1 sequence (P14543 29-1247)
The test is described as follows: HTS screening assay (time-resolved fluorescence), inhibition of laminin/nidogen binding. Here is the method:
5) The compound stocks were preincubated with nidogen (10 μl compound stock to 90 μl nidogen solution) and the assay was performed as described in the attached protocol, yielding a final screening concentration of 2.7 μM per compound. The isolation of laminin P1 from human placenta, human nidogen from transfected HEK-293 cells and mouse laminin γ1III 3-5 from HEK-293 cells is described in WO 98/31709. 3.1.1. HTS screening assay (highly sensitive assay variant): Time-Resolved Fluorescence Assay Coating of test tubes Microtiter plates (for example FluoroNunc®) were coated with 75 μl of a 0.1 μg/ml solution of laminin P1 (in 0.159 g of Na2CO3, 0.293 g of NaHCO3, 0.02 g of NaN3/liter, pH 9.2) at room temperature for 1 hour. The solution was then tipped off, and free binding sites were blocked by incubation with 0.5% BSA (in 7.9 g of NaCl, 1.2 g of Na2HPO4, 0.31 g of KCl, 0.23 g of NaH2PO4, 0.04% Tween 20/liter, pH 7.2) at room temperature for 0.5 hour. Completion of the blocking reaction was followed by decantation of the solution and washing once with 250 μl of washing buffer (PBS/0.04% Tween). Sequential inhibition In parallel with the coating, a preincubation of 85-100 μl of a 0.25 nM nidogen solution (recombinantly produced human nidogen) with inhibitor or standard was carried out in a separate reaction vessel (1 hour at room temperature in 7.9 g of NaCl, 1.2 g of Na2HPO4, 0.31 g of KCl, 0.23 g of NaH2PO4, 0.04% Tween 20/liter, 0.5% BSA, pH 7.2). 75 μl of the preincubation (nidogen+inhibitor or standard) were transferred into the coated wells of the microtiter plate and incubated at room temperature for 1 hour. This was followed by washing twice with PBS/0.04% Tween. Detection of the bound nidogen took place by incubation (at room temperature) for 1 hour with 75 μl of a specific antibody preparation obtained from yolks of eggs from a chicken immunized with human nidogen. The IgY fraction was used in a dilution of 1:500 in PBS/0.04% Tween. The complex of nidogen and specifically bound antibodies was, after washing twice with PBS/0.04% Tween, detected by adding anti-chicken IgY-biotin (75 μl of a 1:2500 dilution; Promega, Madison, Wis. 53711, 608-274-4330). An incubation time of 1 hour and washing twice with PBS/0.04% Tween were followed for this purpose by incubation with streptavidin-europium (Wallac; 1 hour at room temperature) and washing twice with PBS/0.04% Tween. It was finally possible, after adding 100 μl of enhancement solution (Wallac) and shaking for 5 minutes, to measure a fluorescence signal in a Victor multilabel counter using the europium protocol. The relation between the amount, of bound nidogen in the solutions with inhibitor and that of nidogen without added inhibitor was found.

The mark [3] stands for this setting: Table 2, HTS assay variant, read-out: IC50, HTS assay.
The mark [4] stands for this setting: results table 1.3, synthesized compounds 1 to 43, read-out: IC50.

Read-outs that look alike come from different tables or passages of the source. Starred links: 1 amine or outer side, 2 acyl side, 3 side chain; linkers in the order of their positions; H or OH if unused. Non-standard residues stand in square brackets, D forms with d. Residues, ends and D or L forms follow the SMILES beside them. No end group written: not given here. ξ: configuration not given here. *: point of attachment. Bip = N[C@@H](Cc1ccc(-c2ccccc2)cc1)C(=O)O; 2Nal = N[C@@H](Cc1ccc2ccccc2c1)C(=O)O; NH(3-hydroxypropyl) = OCCCN*; Suc = O=C(CCC(=O)[*:2])[*:1]; Tle = CC(C)(C)[C@H](N)C(=O)O; ξN = NC(=O)CC(N)C(=O)O; Bn = c1ccc(C*)cc1

`CC(C)[C@H](NC(=O)[C@H](CO)NC(=O)[C@H](CC(N)=O)NC(=O)[C@H](Cc1ccc2ccccc2c1)NC(=O)CCC(=O)O)C(=O)NCC(=O)NCCCO` [Compound 24, Succinyl-L-3-(2-naphthyl)alanyl-L-asparaginyl-L-seryl-L-valyl-glycine-3-hydroxypropylamide] (Suc-[2Nal]NSVG-{NH(3-hydroxypropyl)}): the IC50 in test [1] turned out to be 90 nM; in test [2] (setting [3]), 360 nM; in test [2] (setting [4]) it was 390 nM. On to `CC(C)[C@H](NC(=O)[C@H](C)NC(=O)[C@H](CC(N)=O)NC(=O)[C@H](Cc1ccc2ccccc2c1)NC(=O)CCC(=O)O)C(=O)NCC(=O)NCCCO` [Compound 30, Succinyl-L-3-(2-naphthyl)alanyl-L-asparaginyl-L-alanyl-L-valyl-glycine-3-hydroxypropylamide] (Suc-[2Nal]NAVG-{NH(3-hydroxypropyl)}), for which the IC50 in test [2] (setting [4]) amounted to 250 nM.

For the molecule `CC(C)[C@H](NC(=O)[C@H](C)NC(=O)[C@H](CC(N)=O)NC(=O)[C@H](Cc1ccc2ccccc2c1)NC(=O)CCC(=O)O)C(N)=O` [Compound 31, Succinyl-L-3-(2-naphthyl)alanyl-L-asparaginyl-L-alanyl-L-valine-amide] (Suc-[2Nal]NAV-NH2), the values for the concentration for half-maximal inhibition (IC50) in test [1], in test [2] (setting [3]) and in test [2] (setting [4]) were 85 nM, 190 nM and 190 nM, respectively. As to `C[C@H](NC(=O)[C@H](CC(N)=O)NC(=O)[C@H](Cc1ccc2ccccc2c1)NC(=O)CCC(=O)O)C(=O)N[C@H](C(N)=O)C(C)(C)C` [Compound 32, Succinyl-L-3-(2-naphthyl)alanyl-L-asparaginyl-L-alanyl-L-2-tert.butyl-glycine-amide] (Suc-[2Nal]NA[Tle]-NH2), the IC50 in test [2] (setting [4]) amounted to 170 nM.

Regarding `CC(C)[C@H](NC(=O)CNC(=O)[C@H](CC(N)=O)NC(=O)[C@H](Cc1ccc2ccccc2c1)NC(=O)CCC(=O)O)C(N)=O` [Compound 33, Succinyl-L-3-(2-naphthyl)alanyl-L-asparaginyl-glycinyl-L-valine-amide] (Suc-[2Nal]NGV-NH2), in test [2] (setting [4]), the IC50 came to 720 nM.

Take `CC(C)[C@H](NC(=O)[C@H](C)NC(=O)[C@H](CC(N)=O)NC(=O)[C@H](Cc1ccc(OCc2ccccc2)cc1)NC(=O)CCC(=O)O)C(N)=O` [Compound 35, Succinyl-L-O-benzyl-tyrosyl-L-asparaginyl-L-alanyl-L-valine-amide] (Suc-Y(Bn)NAV-NH2): the half-maximal inhibitory concentration (IC50) in test [2] (setting [4]) turned out to be 5020 nM.

For the molecule `CC(C)[C@H](NC(=O)[C@H](C)NC(=O)[C@H](CC(N)=O)NC(=O)[C@H](Cc1ccc(-c2ccccc2)cc1)NC(=O)CCC(=O)O)C(N)=O` [Compound 36, Succinyl-L-3-(4-biphenyl)alanyl-L-asparaginyl-L-alanyl-L-valine-amide] (Suc-[Bip]NAV-NH2), in test [2] (setting [4]), the half-inhibitory concentration (IC50) worked out at 2830 nM. Same read-out and setting: next, `CC(C)[C@H](NC(=O)[C@H](C)NC(=O)[C@H](CC(N)=O)NC(=O)[C@H](Cc1ccc2ccccc2c1)NC(=O)CCC(=O)O)C(=O)O` [Compound 37, Succinyl-L-3-(2-Naphthyl)alanyl-L-asparaginyl-L-alanyl-L-valine] (Suc-[2Nal]NAV-OH): 830 nM; `CC(C)[C@@H](CO)NC(=O)[C@H](C)NC(=O)[C@H](CC(N)=O)NC(=O)[C@H](Cc1ccc2ccccc2c1)NC(=O)CCC(=O)O` [Compound 38, Succinyl-L-3-(2-Naphthyl)alanyl-L-asparaginyl-L-alaninyl-L-valinol]: 260 nM. As to `CC(C)C(NC(=O)[C@H](C)NC(=O)[C@H](CC(N)=O)NC(=O)[C@H](Cc1ccc2ccccc2c1)NC(=O)CCC(=O)O)C(C)C` [Compound 39, Succinyl-L-3-(2-Naphthyl)alanyl-L-asparaginyl-L-alanine-2,4-dimethylpentylamide], in test [2] (setting [4]), the half-inhibitory concentration (IC50) amounted to 1500 nM.

`C[C@H](NC(=O)[C@H](CC(N)=O)NC(=O)[C@H](Cc1ccc2ccccc2c1)NC(=O)CCC(=O)O)C(=O)NCC(C)(C)C` [Compound 40, Succinyl-L-3-(2-Naphthyl)alanyl-L-asparaginyl-L-alanine-neopentylamide]: in test [2] (setting [4]), the concentration for half-maximal inhibition (IC50) was found to be 1160 nM. Regarding `C[C@H](NC(=O)[C@H](CC(N)=O)NC(=O)[C@H](Cc1ccc2ccccc2c1)NC(=O)CCC(=O)O)C(=O)N1CCCC(C)(C)C1` [Compound 41, Succinyl-L-3-(2-Naphthyl)alanyl-L-asparaginyl-L-alanine-3,3-dimethylpiperidinylamide], the IC50 in test [2] (setting [4]) was found to be 8170 nM. On the same count and under the same terms, the same measure for `CC(C)[C@H](NC(=O)[C@H](C)NC(=O)[C@H](CC(N)=O)NC(=O)[C@H](Cc1ccc2ccccc2c1)NC(=O)CCC(=O)O)C(=O)N(C)C` [Compound 42, Succinyl-L-3-(2-Naphthyl)alanyl-L-asparaginyl-L-alanyl-L-valine-dimethylamide] (Suc-[2Nal]NAV-NMe2): 240 nM. With `CC[C@H](C)[C@H](NC(=O)C(N)CC(N)=O)C(=O)N[C@@H](CC(=O)O)C(=O)N1CCC[C@H]1C(=O)N[C@@H](CC(N)=O)C(=O)N[C@@H](C)C(=O)N[C@H](C(=O)O)C(C)C` (stereo partly drawn) [NIDPNAV, Asn-lie-Asp-Pro-Asn-Ala-Val, reference compound] (H-[ξN]IDPNAV-OH), the half-inhibitory concentration (IC50) in test [1] came out at 1200 nM; in test [2] (setting [3]) it was 3900 nM. DPNAV [DPNAV, reference compound]: the concentration for half-maximal inhibition (IC50) in test [1] was 5000 nM; in test [2] (setting [3]), 7700 nM.

(Values after patent US6365572B1, “Low molecular weight peptide derivatives as inhibitors of the laminin/nidogen interaction” (Aventis Pharma Deutschland GmbH, priority 1999, dated 2002).)
